According to US10995099B2, “Compounds and their uses as ACC inhibitors” (NANJING RUIJIE PHARMATECH CO., LTD., priority 2017, dated 2021):
Like-named read-outs stand apart in the source and are kept apart here.

Key:
ACC2 = ACC2 (Homo sapiens (Human), UniProt O00763); assay: In vitro ACC inhibition assay (ADP-Glo), ACC2; assay type: biochemical
Procedure: (§1) Compounds of the present invention were evaluated in an in vitro ACC inhibition assay as described by Harwood, et al, 2003, the entirety of which is incorporated herein by reference.
(§2) In Vitro Acetyl-CoA Carboxylase (ACC) Inhibition Assay
(§3) An exemplary procedure for the in vitro ACC inhibition assay, which can be used to determine the inhibitory action of compounds of the invention toward either ACC1 or ACC2, follows. The ADP-Glo™ Kinase Assay kit from Promega was used. The ADP-Glo™ Kinase Assay is a luminescent ADP detection assay to measure enzymatic activity by quantifying the amount of ADP produced during an enzyme reaction. The assay is performed in two steps; first, after the enzyme reaction, an equal volume of ADP-Glo™ Reagent is added to terminate the reaction and deplete the remaining ATP. Second, the Kinase Detection Reagent is added to simultaneously convert ADP to ATP and allow the newly synthesized ATP to be measured using a luciferase/luciferin reaction. Luminescence can be correlated to ADP concentrations by using an ATP-to-ADP conversion curve. The detailed procedure is as follows. 50 μL of the compound being tested (600 uM in DMSO) was added to a 384-well dilution plate. The compound was diluted 1:3 in succession in DMSO for each row for 11 wells. 0.5 μL ACC2 working solution was added to 384-well white Optiplate assay plate. 0.5 μL diluted compound solution in each column from step 2 to assay plate, each row containing 2 replicates. […] The plates were incubated at room temperature for 15 minutes. 5 μL substrate working solution was added to each well to initiate reaction. Final ACC2 reaction concentrations consist of: 5 nM ACC2, 20 μM ATP, 20 μM acetyl-CoA, 12 mM NaHCO3, 0.01% Brij35, 2 mM DTT, 5% DMSO, test compound concentrations: 30 μM, 10 μM, 3.33 μM, 1.11 μM, 0.37 μM, 0.123 μM, 0.0411 μM, 0.0137 μM, 0.00457 μM, 0.00152 μM, and 0.00051 μM. Plates were incubated at room temperature for 60 minutes. 10 μL ADP glo reagent was added. Plates were incubated at room temperature for 40 minutes. 20 μL kinase detection reagent was added. Plates were incubated at room temperature for 40 minutes, then read on a Perkin Elmer EnVision 2104 plate reader for luminescence as Relative Light Units (RLU).
(§4) Data for each concentration, as well as the positive and negative controls were averaged, and the standard deviation calculated. Percent inhibition was calculated by the formula: 100×(average negative control-compound)/(average negative control-average positive control). The IC50 for each compound was calculated by fitting the data with a non-linear regress ion equation: Y=Bottom+(Top−Bottom)/(1+10((Log IC50−X* HillSlope)), where X is the log of compound concentration and Y is percent inhibition.

HepG2 = assay: EC50 in HepG2; assay type: cell-based
ACC1 = ACC1 (Homo sapiens (Human), UniProt Q13085); assay: In vitro ACC inhibition assay (ADP-Glo), ACC1; assay type: biochemical
Procedure: as §1, §2, §3, §4

[1] = 5 nM ACC2, 20 μM ATP, 20 μM acetyl-CoA, read-out: IC50 (μM) ACC2
[2] = ND630 versus RJ compounds, isoform not given, read-out: IC50 (μM) ND630/RJ-cmps(%)
[3] = Homo sapiens, HepG2, read-out: EC50 (μM) HepG2
[4] = HepG2, read-out: EC50 (μM) HepG2
[5] = ND630 versus RJ compounds, read-out: EC50 (μM) ND630/RJ-cmps(%)

ACC2, sequence (O00763 whole entry, species assumed): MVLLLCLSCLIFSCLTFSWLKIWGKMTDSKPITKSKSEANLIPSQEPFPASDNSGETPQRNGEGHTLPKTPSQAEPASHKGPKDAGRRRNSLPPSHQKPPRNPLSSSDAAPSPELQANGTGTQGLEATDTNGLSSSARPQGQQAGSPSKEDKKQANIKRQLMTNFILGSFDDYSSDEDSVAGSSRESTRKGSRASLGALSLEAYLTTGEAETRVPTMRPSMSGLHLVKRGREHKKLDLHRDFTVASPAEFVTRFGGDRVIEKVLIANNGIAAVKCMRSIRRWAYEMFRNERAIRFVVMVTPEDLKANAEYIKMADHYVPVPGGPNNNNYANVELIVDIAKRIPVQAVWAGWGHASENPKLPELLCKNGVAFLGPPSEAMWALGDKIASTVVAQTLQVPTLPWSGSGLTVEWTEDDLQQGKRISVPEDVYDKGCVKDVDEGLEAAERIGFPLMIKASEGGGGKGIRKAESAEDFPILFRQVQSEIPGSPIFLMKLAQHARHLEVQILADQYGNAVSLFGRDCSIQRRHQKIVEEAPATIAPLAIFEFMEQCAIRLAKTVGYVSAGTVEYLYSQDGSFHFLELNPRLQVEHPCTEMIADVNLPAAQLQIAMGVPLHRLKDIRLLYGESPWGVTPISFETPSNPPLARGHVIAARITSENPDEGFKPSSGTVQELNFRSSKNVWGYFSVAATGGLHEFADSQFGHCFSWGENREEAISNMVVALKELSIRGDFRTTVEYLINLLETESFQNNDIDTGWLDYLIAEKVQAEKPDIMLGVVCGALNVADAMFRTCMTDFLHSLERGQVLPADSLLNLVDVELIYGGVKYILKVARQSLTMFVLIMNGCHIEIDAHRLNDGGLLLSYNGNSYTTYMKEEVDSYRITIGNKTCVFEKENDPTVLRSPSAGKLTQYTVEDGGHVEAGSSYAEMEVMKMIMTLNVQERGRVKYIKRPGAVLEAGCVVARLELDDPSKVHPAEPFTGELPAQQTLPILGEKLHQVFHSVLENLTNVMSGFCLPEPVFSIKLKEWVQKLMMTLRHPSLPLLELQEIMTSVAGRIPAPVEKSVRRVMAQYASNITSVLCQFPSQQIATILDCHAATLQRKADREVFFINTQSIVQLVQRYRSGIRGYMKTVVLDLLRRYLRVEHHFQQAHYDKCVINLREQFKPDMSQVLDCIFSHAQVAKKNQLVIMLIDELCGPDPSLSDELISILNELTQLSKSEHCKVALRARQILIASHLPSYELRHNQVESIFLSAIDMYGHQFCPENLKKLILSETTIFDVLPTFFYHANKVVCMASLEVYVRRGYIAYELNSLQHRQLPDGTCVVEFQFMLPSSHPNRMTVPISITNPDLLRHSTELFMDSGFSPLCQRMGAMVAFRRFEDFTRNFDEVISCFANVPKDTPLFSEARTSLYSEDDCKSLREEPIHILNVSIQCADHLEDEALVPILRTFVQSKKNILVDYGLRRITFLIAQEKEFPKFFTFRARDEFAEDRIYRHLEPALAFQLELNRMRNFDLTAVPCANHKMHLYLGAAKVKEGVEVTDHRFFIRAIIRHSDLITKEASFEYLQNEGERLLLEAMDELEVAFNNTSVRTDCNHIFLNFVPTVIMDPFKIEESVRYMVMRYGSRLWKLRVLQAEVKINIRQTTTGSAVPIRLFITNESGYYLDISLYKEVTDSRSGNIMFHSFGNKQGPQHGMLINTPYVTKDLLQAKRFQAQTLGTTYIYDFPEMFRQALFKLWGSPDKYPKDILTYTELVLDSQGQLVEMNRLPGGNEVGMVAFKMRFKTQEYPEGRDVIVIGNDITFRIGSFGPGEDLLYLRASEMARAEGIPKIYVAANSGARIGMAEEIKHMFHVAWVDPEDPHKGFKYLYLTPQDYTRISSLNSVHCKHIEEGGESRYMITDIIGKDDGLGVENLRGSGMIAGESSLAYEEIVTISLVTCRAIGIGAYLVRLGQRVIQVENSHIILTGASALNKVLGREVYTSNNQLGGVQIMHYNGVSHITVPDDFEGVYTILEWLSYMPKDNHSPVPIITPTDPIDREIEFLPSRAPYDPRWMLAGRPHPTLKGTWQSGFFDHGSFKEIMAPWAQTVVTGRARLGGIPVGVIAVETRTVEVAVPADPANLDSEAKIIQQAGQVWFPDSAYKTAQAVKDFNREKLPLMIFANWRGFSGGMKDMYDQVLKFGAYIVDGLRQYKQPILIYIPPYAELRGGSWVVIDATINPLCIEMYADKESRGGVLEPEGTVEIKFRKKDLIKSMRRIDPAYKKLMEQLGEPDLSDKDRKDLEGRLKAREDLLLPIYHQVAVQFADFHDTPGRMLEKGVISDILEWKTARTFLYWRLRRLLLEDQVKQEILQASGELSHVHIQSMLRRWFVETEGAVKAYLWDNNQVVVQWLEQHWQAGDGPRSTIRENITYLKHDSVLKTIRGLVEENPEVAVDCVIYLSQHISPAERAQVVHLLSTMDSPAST

Compound | IC50 (ACC2; [1]) [µM] | IC50 (ACC2; [2]) [µM] | EC50 (HepG2; [3]) [µM] | EC50 (HepG2; Homo sapiens, ND630 versus RJ compounds, read-out: EC50 (μM) ND630/RJ-cmps(%)) [µM] | EC50 (HepG2; [4]) [µM] | EC50 (HepG2; [5]) [µM] | IC50 (ACC1) [µM]
COc1ccccc1C(Cn1c(=O)n(C2(C(=O)O)CC2)c(=O)c2c(C)c(-c3ncco3)sc21)OC1CCOCC1 (centres unmarked) [Example 3, 1-[1-[2-(2-methoxyphenyl)-2-tetrahydropyran-4-yloxy-ethyl]-5-methyl-6-oxazol-2-yl-2,4-dioxo-thieno[2,3-d]pyrimidin-3-yl]cyclopropanecarboxylic acid] | 0.01 to 0.1 | 0.005 to 0.01 | 0.01 to 0.1 | > 1 | – | – | –
COc1ccccc1C(Cn1c(=O)n(C2(C(=O)O)CC2)c(=O)c2c(C)c(Br)sc21)OC1CCOCC1 (centres unmarked) [Example 4, 1-(6-bromo-1-(2-(2-methoxyphenyl)-2-(tetrahydro-2H-pyran-4-yloxy)ethyl)-5-methyl-2,4-dioxo-1,2-dihydrothieno[2,3-d]pyrimidin-3(4H)-yl)cyclopropanecarboxylic Acid] | 0.01 to 0.1 | 0.005 to 0.01 | 0.01 to 0.1 | – | – | – | –
COc1ccccc1[C@H](Cn1c(=O)n(C(C)(C)C(=O)O)c(=O)c2c(C)c(-c3ncco3)sc21)OC1CCOCC1 [Example 8] | 0.01 to 0.1 | 0.005 to 0.01 | – | – | > 1 | > 1 | –
COc1ccccc1[C@H](Cn1c(=O)n(C(C)(C)C(=O)O)c(=O)c2c(C)c(-c3nnco3)sc21)OC1CCOCC1 [Example 9] | 0.1 to 1 | 0.005 to 0.01 | – | – | > 1 | > 1 | –
COc1ccccc1C(Cn1c(=O)n(C(C)(C)C(=O)O)c(=O)c2c(C)c(Br)sc21)OC1CCOCC1 (centres unmarked) [Example 10] | 0.01 to 0.1 | 0.005 to 0.01 | – | – | 0.1 to 1 | > 1 | –
COc1ccccc1C(Cn1c(=O)n(C(C)(C)C(=O)O)c(=O)c2cc(C)c(-c3ncco3)cc21)OC1CCOCC1 (centres unmarked) [Example 11] | > 1 | 0.005 to 0.01 | – | – | – | 0.01 to 0.1 | –
COc1ccccc1C(Cn1c(=O)n(C(C)(C)C(=O)O)c(=O)c2cc(C)c(Br)cc21)OC1CCOCC1 (centres unmarked) [Example 12] | > 1 | 0.005 to 0.01 | – | – | – | 0.01 to 0.1 | –
COc1ccccc1C(O)Cn1c(=O)n(C(C)(C)C(=O)O)c(=O)c2cc(C)c(-c3ncco3)cc21 (centres unmarked) [Example 13] | > 1 | 0.005 to 0.01 | – | – | – | 0.01 to 0.1 | –
COc1ccccc1[C@H](Cn1c(=O)n(C2(C(=O)O)CC2)c(=O)c2c(C)csc21)OC1CCOCC1 [Example 17] | > 1 | 0.005 to 0.01 | – | – | – | – | –
COc1ccccc1C(Cn1c(=O)n(C2(CC(=O)N3CCOCC3)CC2)c(=O)c2c(C)c(Br)sc21)OC1CCOCC1 (centres unmarked) [Example 23] | 0.1 to 1 | 0.003 to 0.005 | – | – | – | 0.1 to 1 | –
COc1ccccc1C(Cn1c(=O)n(C2(C(=O)O)CCCC2)c(=O)c2c(C)c(-c3ncco3)sc21)OC1CCOCC1 (centres unmarked) [Example 25] | < 0.01 | 0.003 to 0.005 | – | – | – | 0.1 to 1 | –
COc1ccccc1C(Cn1c(=O)n(C2(C(=O)O)CCC2)c(=O)c2c(C)c(-c3ncco3)sc21)OC1CCOCC1 (centres unmarked) [Example 26] | < 0.01 | 0.003 to 0.005 | – | – | – | 0.1 to 1 | –
COCc1sc2c(c1C)c(=O)n(C1(C(=O)O)CCCC1)c(=O)n2C[C@H](CC1CCOCC1)c1ccccc1OC [Example 27] | > 1 | 0.003 to 0.005 | – | – | – | 0.1 to 1 | –
COc1ccccc1[C@@H](Cn1c(=O)n(C2(C(=O)O)CC2)c(=O)c2c(C)c(-c3ncco3)sc21)OC1CCOCC1 [Example 28] | 0.1 to 1 | 0.003 to 0.005 | – | – | – | 0.1 to 1 | –
COc1ccccc1[C@@H](Cn1c(=O)n(C2(C(=O)O)CC2)c(=O)c2c(C)c(Br)sc21)OC1CCOCC1 [Example 32] | 0.1 to 1 | 0.003 to 0.005 | – | – | – | 0.1 to 1 | –
COc1ccccc1[C@H](Cn1c(=O)n(C2(C(=O)O)CCC2)c(=O)c2c(C)c(CN)sc21)OC1CCOCC1 [Example 34] | > 1 | 0.003 to 0.005 | – | – | – | 0.1 to 1 | –
COc1ccccc1[C@H](Cn1c(=O)n(C2(C(=O)O)CC2)c(=O)c2cc(-c3ncco3)ccc21)OC1CCOCC1 [Example 39] | > 1 | 0.005 to 0.01 | – | – | 0.1 to 1 | 0.01 to 0.1 | –

Compound | IC50 (ACC2; [1]) [µM] | IC50 (ACC2; [2]) [µM] | EC50 (HepG2; [3]) [µM] | EC50 (HepG2; Homo sapiens, ND630 versus RJ compounds, read-out: EC50 (μM) ND630/RJ-cmps(%)) [µM] | EC50 (HepG2; [4]) [µM] | EC50 (HepG2; [5]) [µM] | IC50 (ACC1) [µM]
COc1ccccc1C(Cn1c(=O)n(C2(C(N)=O)CCCC2)c(=O)c2c(C)c(-c3ncco3)sc21)OC1CCOCC1 (centres unmarked) [Example 43] | < 0.01 | 0.005 to 0.01 | – | – | < 0.01 | > 1 | 0.001 to 0.01
CNC(=O)C1(n2c(=O)c3c(C)c(-c4ncco4)sc3n(CC(OC3CCOCC3)c3ccccc3OC)c2=O)CCCC1 (centres unmarked) [Example 44] | 0.01 to 0.1 | 0.005 to 0.01 | – | – | < 0.01 | > 1 | 0.001 to 0.01
COc1ccccc1[C@H](Cn1c(=O)n(C2(C(=O)O)CC2)c(=O)c2c(C)c(-n3cccn3)sc21)OC1CCOCC1 [Example 45] | < 0.01 | 0.005 to 0.01 | – | – | 0.1 to 1 | > 1 | –
COc1ccccc1C(Cn1c(=O)n(C2(C(N)=O)CCCC2)c(=O)c2c(C)c(Br)sc21)OC1CCOCC1 (centres unmarked) [Example 48] | < 0.01 | 0.003 to 0.005 | – | – | 0.1 to 1 | > 1 | –
COc1ccccc1[C@H](Cn1c(=O)n(C2(C(=O)O)CC2)c(=O)c2c(C)c(-n3nccn3)sc21)OC1CCOCC1 [Example 49] | < 0.01 | 0.003 to 0.005 | – | – | 0.1 to 1 | 0.1 to 1 | –
CNC(=O)C1(n2c(=O)c3c(C)c(Br)sc3n(CC(OC3CCOCC3)c3ccccc3OC)c2=O)CCCC1 (centres unmarked) [Example 50] | 0.01 to 0.1 | 0.003 to 0.005 | – | – | – | 0.1 to 1 | –
COc1ccccc1[C@H](Cn1c(=O)n(C2(C(=O)O)CC2)c(=O)c2c(C)c(-n3cncn3)sc21)OC1CCOCC1 [Example 56] | 0.1 to 1 | 0.005 to 0.01 | – | – | – | – | –
CNC(=O)C1(n2c(=O)c3cc(Br)sc3n(C[C@H](OC3CCOCC3)c3ccccc3OC)c2=O)CC1 [Example 57] | 0.1 to 1 | 0.005 to 0.01 | – | – | 0.1 to 1 | – | –
COc1ccccc1[C@H](Cn1c(=O)n(C2(CC(=O)O)CC2)c(=O)c2c(C)c(Br)sc21)OC1CCOCC1 [Example 59] | 0.01 to 0.1 | > 0.01 | – | – | – | – | 0.01 to 0.05
COc1ccccc1[C@H](Cn1c(=O)n(C2(CC(N)=O)CC2)c(=O)c2c(C)c(Br)sc21)OC1CCOCC1 [Example 60] | 0.01 to 0.1 | > 0.01 | – | – | – | – | 0.01 to 0.05
COCCNC(=O)CC1(n2c(=O)c3c(C)c(-c4ncco4)sc3n(CC(OC3CCOCC3)c3ccccc3OC)c2=O)CC1 (centres unmarked) [Example 65] | 0.01 to 0.1 | – | – | – | > 1 | – | –
COc1ccccc1[C@H](Cn1c(=O)n(C(C)(C)C(=O)OC(C)(C)C)c(=O)c2c(C)c(-c3ncco3)sc21)OC1CCOCC1 [Example 66] | 0.01 to 0.1 | > 0.01 | – | – | – | – | 0.001 to 0.01
COC(=O)C1(n2c(=O)c3c(C)c(Br)sc3n(C[C@H](OC3CCOCC3)c3ccccc3OC)c2=O)CCC1 [Example 67] | 0.1 to 1 | > 0.01 | – | – | – | – | > 0.05
COc1ccccc1[C@H](Cn1c(=O)n(C(C)(C)C(=O)OC(C)(C)C)c(=O)c2c(C)c(Br)sc21)OC1CCOCC1 [Example 68] | 0.1 to 1 | > 0.01 | – | – | – | – | > 0.05
COc1ccccc1[C@H](Cn1c(=O)n(C2(C(=O)O)CC2)c(=O)c2c(C)c(-c3cnco3)sc21)OC1CCOCC1 [Example 80] | 0.01 to 0.1 | 0.005 to 0.01 | – | – | > 1 | > 1 | –
COc1ccccc1C(Cn1c(=O)n(C2(CC(=O)O)CC2)c(=O)c2c(C)c(-c3ncco3)sc21)OC1CCOCC1 (centres unmarked) [Example 82] | 0.01 to 0.1 | 0.005 to 0.01 | – | – | 0.01 to 0.1 | > 1 | –
